Measurements taken from publication PMC8667043, “First-in-Class Inhibitors of the Ribosomal Oxygenase MINA53” (Journal of Medicinal Chemistry, 2021).

Assays:
IMS-M2 = assay: WST-1 cell proliferation assay; format: cell-based; details: AML, WST-1, 48 h, read-out: IC50 antiproliferative effect, IMS-M2
Protocol: (§1) The effect of compounds on cell proliferation of different leukemia and lymphoma cell lines OCI-AML3 (DSMZ ACC-582), IMS-M2 (a gift from Professor B. Falini, University of Perugia), OCI-AML2 (DSMZ, ACC-99), MV4–11 (ATCC, CRL-9591), Kasumi-1 (ATCC, CRL-2724), Karpass299 (DSMZ, ACC-31), U937 (ATCC, CRL1593.2), HL-60 (ATCC, CCL-240), and NB4 (DSMZ, ACC-207) was evaluated using the WST-1 assay (Roche Diagnostic GmbH Germany). The cells were plated, in triplicate, in 384-viewplate (Perkin Elmer) at a density of 5 × 10^3 cells/well in a final volume of 22.5 μL. The cells were incubated with increasing concentrations of compounds for 48 h at 37 °C, 5% CO2, then 2.5 μL of WST-1 reagent was added to each well for 1 h. For each cell line, dose–response curves were analyzed as nonlinear regression curves using GraphPad Prism (GraphPad Software Inc.) to obtain IC50 values.

OCI-AML3 = assay: WST-1 cell proliferation assay; format: cell-based; details: Homo sapiens, OCI-AML-3, WST-1, 48 h, read-out: IC50 antiproliferative effect, OCI-AML3
Protocol: as §1

HL-60 = assay: WST-1 cell proliferation assay; format: cell-based; details: Homo sapiens, APL, WST-1, 48 h, read-out: IC50 antiproliferative effect, HL-60
Protocol: as §1

OCI-AML2 = assay: WST-1 cell proliferation assay; format: cell-based; details: Homo sapiens, AML, WST-1, 48 h, read-out: IC50 antiproliferative effect, OCI-AML2
Protocol: as §1

Kasumi-1 = assay: WST-1 cell proliferation assay; format: cell-based; details: Homo sapiens, AML, WST-1, 48 h, read-out: IC50 antiproliferative effect, Kasumi-1
Protocol: as §1

MV4-11 = assay: WST-1 cell proliferation assay; format: cell-based; details: Homo sapiens, AML, WST-1, 48 h, read-out: IC50 antiproliferative effect, MV4-11
Protocol: as §1

U937 = assay: WST-1 cell proliferation assay; format: cell-based; details: Homo sapiens, U-937; AML; WST-1, 48 h; read-out: IC50 antiproliferative effect, U937
Protocol: as §1

NB4 = assay: WST-1 cell proliferation assay; format: cell-based; details: Homo sapiens, NB-4; APL; WST-1, 48 h; read-out: IC50 antiproliferative effect, NB4
Protocol: as §1

Karpass299 = assay: WST-1 cell proliferation assay; format: cell-based; details: ALCL; WST-1, 48 h; read-out: IC50 antiproliferative effect, Karpass299
Protocol: as §1

HeLa cervical carcinoma = assay: MTT cell viability assay; format: cell-based; details: 72, 96, 120 h
Protocol: (§2) Human commercially available established cancer cell lines HT-29 colon carcinoma (ATCC, HTB-38), U-87MG glioblastoma (ATCC, HTB-14), and MNK-45 gastric cancer (a gift from Dr. M. Broggini, Mario Negri Institute) were cultured in RPMI medium (Euroclone, Milan, IT) supplemented with 10% inactivated fetal bovine serum (HyClone, Thermo Scientific, South Logan, UT), 1% L-glutamine (Euroclone), and 100 μg/mL penicillin/streptomycin (Euroclone). HEK293T and HeLa cells were cultured in Dulbecco’s Modified Eagle Medium (DMEM, Gibco) supplemented with 10% (v/v) fetal bovine serum (FBS, Sigma) and 100 international units/mL (IU/mL) penicillin and 100 μg/mL streptomycin (Gibco). The cells were routinely tested for mycoplasma contamination and STR-authenticated.
(§3) Twenty-four hours following seeding, exponentially growing cells were treated with the different compounds at concentrations ranging from 10 to 100 μM for 72–120 h. Aqueous DMSO (0.5%, v/v) was used as a control (untreated). Cell viability was determined by the 3-(4,5-dimethylthiazol-2-yl)-2,5-diphenyltetrazolium bromide (MTT) colorimetric assay (Sigma-Aldrich). In summary, exponentially growing cancer cells were seeded in sextuplicate in 96-well culture plates (1.5 × 10^3 cells/well). After 24 h, the compounds were added at concentrations ranging from 10 to 100 μM. The effect of compounds on cancer cell proliferation was assessed by measuring the MTT dye absorbance of the cells as reported.[52] […] The effect of different compounds or combinations (drug concentration ratio 1:20, doxorubicin: compound) on U-87MG cancer cell viability was assessed by measuring the MTT dye absorbance of cells. The interaction between doxorubicin (Doxo) and different compounds was evaluated based on the combination index (CI) using the CI equation through CalcuSyn software (Biosoft, Cambridge, U.K.). […]
(§4) Figure S17. Antiproliferative effects of M INA53 inhibitors on HeLa (A) and HEK293T (B) cells as determined by the MTT method after exposure for 72, 96, and 120 h to the negative control 1, and the MINA53 inhibitors 9 and 10. […]

HEK293T = assay: MTT cell viability assay; format: cell-based, human; details: 72, 96, 120 h
Protocol: as §2, §3, §4

MNK-45 gastric carcinoma = assay: MTT cell viability assay; format: cell-based, human; details: 72, 96, 120 h, 10 to 100 μM, 10′ to a similar extent as 10
Protocol: as §2
(§5) Twenty-four hours following seeding, exponentially growing cells were treated with the different compounds at concentrations ranging from 10 to 100 μM for 72–120 h. Aqueous DMSO (0.5%, v/v) was used as a control (untreated). Cell viability was determined by the 3-(4,5-dimethylthiazol-2-yl)-2,5-diphenyltetrazolium bromide (MTT) colorimetric assay (Sigma-Aldrich). In summary, exponentially growing cancer cells were seeded in sextuplicate in 96-well culture plates (1.5 × 10^3 cells/well). After 24 h, the compounds were added at concentrations ranging from 10 to 100 μM. The effect of compounds on cancer cell proliferation was assessed by measuring the MTT dye absorbance of the cells as reported.[52] For combination treatments, the cells were treated with each of three compounds, either alone or in combination with doxorubicin. In particular, U-87MG cells were treated with doxorubicin alone or in combination with different MINA53 inhibitors for 24 h. The effect of different compounds or combinations (drug concentration ratio 1:20, doxorubicin: compound) on U-87MG cancer cell viability was assessed by measuring the MTT dye absorbance of cells. The interaction between doxorubicin (Doxo) and different compounds was evaluated based on the combination index (CI) using the CI equation through CalcuSyn software (Biosoft, Cambridge, U.K.). Synergism CI < 0.9, additivity 0.9 < CI < 1.1, antagonism CI > 1.1.

HT-29 colon carcinoma = assay: MTT cell viability assay; format: cell-based, human; details: 72, 96, 120 h, 10 to 100 μM, 10′ to a similar extent as 10
Protocol: as §2, §5

U-87MG malignant glioma = assay: MTT cell viability assay; format: cell-based, human; details: 72, 96, 120 h, 10 to 100 μM, 10′ to a similar extent as 10
Protocol: as §2, §5

U-87MG cells = assay: Flow cytometric analysis of cell cycle distribution and Sub-G1 peak (PI staining); format: cell-based, human; details: 24 h; for accumulation of cells in the G2/M phase of the cell cycle / percentage of apoptotic cells (Sub-G1), compound alone: 10 μM; for percentage of apoptotic cells (Sub-G1), with doxorubicin: 10 μM compound + doxorubicin 0.5 μM
Protocol: Cell cycle distribution and apoptosis were assayed by staining floating and adherent cells with propidium iodide ([…] RNase A and 20 μg/mL propidium iodide) for 45 min. Flow cytometric analyses were performed using Epics XL apparatus (Beckman Coulter). Ten thousand events were collected from each sample, and data were processed using Flowing software.

SMILES | IC50 (IMS-M2) [µM] | IC50 (OCI-AML3) [µM] | IC50 (HL-60) [µM] | IC50 (OCI-AML2) [µM] | IC50 (Kasumi-1) [µM] | IC50 (MV4-11) [µM] | IC50 (U937) [µM] | IC50 (NB4) [µM] | IC50 (Karpass299) [µM] | effect on cell viability, HeLa (HeLa cervical carcinoma) | effect on cell viability, HEK293T (HEK293T) | effect on cell viability, MNK-45 (MNK-45 gastric carcinoma) | effect on cell viability, HT-29 (HT-29 colon carcinoma) | effect on cell viability, U-87MG (U-87MG malignant glioma) | accumulation of cells in the G2/M phase of the cell cycle (U-87MG cells) | percentage of apoptotic cells (Sub-G1), with doxorubicin (U-87MG cells) | percentage of apoptotic cells (Sub-G1), compound alone (U-87MG cells)
O=C(O)c1c[nH]c(=S)[nH]c1=O [compound 1] | > 100 | > 100 | > 100 | > 100 | > 100 | > 100 | > 100 | > 100 | > 100 | no effect | no effect | no effect | no effect | no effect | not |  | 
O=C(O)c1cnc(SCCc2ccccc2)[nH]c1=O [compound 9, 2-(Phenethylthio)-3,4-dihydro-4-oxopyrimidine-5-carboxylic Acid] | > 100 | > 100 | 73 ± 3 | > 100 | > 100 | > 100 | > 100 | 91 ± 3 | > 100 | sensitive | sensitivity | sensitive | only a marginal effect | sensitive | induced accumulation of cells in the G2/M phase | about 60% | about 30%
O=C(O)c1cnc(SCCCc2ccccc2)[nH]c1=O [compound 10, 2-((3-Phenylpropyl)thio)-3,4-dihydro-4-oxopyrimidine-5-carboxylic Acid] | > 100 | > 100 | 14 ± 2 | > 100 | > 100 | > 100 | > 100 | 94 ± 4 | > 100 | sensitive | sensitivity | sensitive | only a marginal effect | sensitive | induced accumulation of cells in the G2/M phase | about 60% | about 30%
